Where two headings read alike, the source gives them in different places. Numbered stars: 1 amine (or outer) side, 2 acyl side, 3 side chain; on linkers, the order of the positions; unused ones are H or OH. Bridge positions count the residues as written; N and C are the ends. Square brackets hold non-standard residues; d marks the D form. Peptide text beside a SMILES is read from it. * marks the point of attachment. Orn(4R-OH,5R-OH) = O=C([C@H](C[C@@H](O)[C@@H](O)N[*:3])N[*:1])[*:2]; hTyr(3S-OH,4S-OH) = N[C@H](C(=O)O)[C@H](O)[C@@H](O)c1ccc(O)cc1; Pro(3S-OH,4S-Me) = C[C@H]1CN[C@H](C(=O)O)[C@H]1O; 4Abz(2-Cl) = O=C(c1ccc(N[*:1])cc1Cl)[*:2]; X5 = O=C(c1cc(Cl)cc(N[*:1])c1Cl)[*:2]; X9 = COc1ccc(C(=O)[*:2])cc1N[*:1]; Hyp = O=C(O)[C@@H]1C[C@@H](O)CN1; X7 = Cc1ccc(C(=O)[*:2])cc1N[*:1]; X8 = O=C(c1ccc(N[*:1])cc1O)[*:2]; X3 = O=C(c1cccnc1N[*:1])[*:2]; Lauroyl = CCCCCCCCCCCC(=O)*; Decanoyl = CCCCCCCCCC(=O)*; 3Abz = Nc1cccc(C(=O)O)c1; 4Abz = Nc1ccc(C(=O)O)cc1; Heptanoyl = CCCCCCC(=O)*; Octanoyl = CCCCCCCC(=O)*; Aun = NCCCCCCCCCCC(=O)O
Columns and labels:
[1] = system: Saccharomyces pastorianus X-52; assay: Agar plate disc diffusion test, zone of inhibition; assay type: cell-based; conditions: Saccharomyces pastorianus, X52, 48 h, Saccharomyces pastorianus X-52; 1 mg/ml suspension in methanol, 7 mm disc; 24-48 hours at 25-37° C.; read-out: Size of Zone of Inhibition
Experimental: (§1) ^(a) Compounds were tested as suspension in methanol.
(§2) were tested at a concentration of 1 mg/ml by a dipping 7mm disc into the
(§3) suspension and placing it on the agar surface. Incubation: 24-48 hours at

[2] = system: Neurospora Crassa 846; assay: Agar plate disc diffusion test, zone of inhibition; assay type: cell-based; conditions: Neurospora crassa, 7 mm disc
Experimental: as §1, §2, §3

[3] = system: Trichophyton mentagrophytes; assay: Agar plate disc diffusion test, zone of inhibition; assay type: cell-based; conditions: 7 mm disc
Experimental: as §1, §2, §3

[4] = system: Candida albicans A-26; assay: Agar plate disc diffusion test, zone of inhibition; assay type: cell-based; conditions: 7 mm disc; for Size of Zone of Inhibition: 1 mg/ml suspension in methanol, 24-48 hours at 25-37° C., no regrowth mark
Experimental: as §1, §2, §3

[5] = system: Candida albicans A-26; assay: Agar plate disc diffusion test, MIC per disc; assay type: cell-based; conditions: 0.01M sodium borate, pH 7.5, 24 hours at 30° C.
Experimental: (§4) In Table 5, activity is measured by the minimal inhibitory concentration (MIC) of the substance (μg/disc) required to inhibit growth of the test organism.
(§5) *Compounds were suspended in 0.01M sodium borate solution, pH 7.5.
(§6) compounds were tested at 20 μg/disc at top level and at twofold
(§7) dilutions until end points were reached.

[6] = system: Trychophyton mentagrophytes #6; assay: Agar plate disc diffusion test, MIC per disc; assay type: cell-based; conditions: 0.01M sodium borate, pH 7.5, 24 hours at 30° C.
Experimental: as §4, §5, §6, §7

[7] = system: Candida albicans A-26; assay: Therapeutic activity against Candida albicans A-26 infection in mice; assay type: in vivo; conditions: A26, sc
Experimental: The results of in vivo tests to evaluate the effectiveness of the compound of Examples 61-81, 86 and 88 against an infection caused by Candida albicans A-26 in mice are given in Table 7, where activity is measured by the ED50 value (the dose in mg/kg. required to cure 50% of the test animals). Where an ED50 value was not obtained, activity is indicated by the lowest dose at which a significant anti-fungal effect is observed. In this test, groups of male albino mice (specific pathogen free), weighing 18 to 20 grams, are infected intravenously with Candida albicans A-26. The animals are X-irradiated 24 hours prior to infection at about 50 roentgens per minute for 8 minutes (400 total dose) to reduce immune responses to the infecting organism. At 0, 4, and 24 hours post infection each group of mice is given graded doses subcutaneously of the test compound as a suspension in 33% polyethylene glycol-water. The day of death for each animal is recorded.
*Dosage Schedule: 40, 20, 15, and 10 mg/kg. Dosages given 0, 4, and 24
hours post injection as suspension of test compound in 30% PEGH2 O.
Number of mice receiving test compounds at each dosage level: 6 mice per
group. Number of mice in control (untreated) group: 10 mice per group.
**As measured by increase in survival time of treated animals versus
control, calculated by method of Reed V. Mueuch, American J. Hygiene, 493

[8] = mouse, in vivo, 416 mg/kg, 240 min
Experimental: In this test, mice are gavaged with a dose of 416 mg/kg of the test compound suspended in 33% PEG 400-water. At time intervals, blood samples are taken from the orbital sinus and are assayed for antibiotic activity as follows: A 7 mm. disc containing 20 μl of whole blood is placed on agar seeded with Aspergillus montevidensis A35137. After 40 hours incubation at 30° C. zones of inhibition from the blood samples are compared to a standard obtained from the test compound, and the amount of compound in the blood sample is calculated.

[9] = CRASSA846, Neurospora Crassa 846, 1 mg/ml, * measurable zone of inhibition with regrowth of organism around disc, read-out: Size of Zone of Inhibition (*)
[10] = 1 mg/ml, * measurable zone of inhibition with regrowth of organism around disc, read-out: Size of Zone of Inhibition (*)
[11] = subcutaneous at 0, 4 and 24 hours post infection, dose to cure 50% of test animals, by increase in survival time, read-out: ED50
[12] = subcutaneous at 0, 4 and 24 hours post infection, lowest dose with significant anti-fungal effect, read-out: Lowest Active Dose
[13] = read-out: Lowest Active Dose, subcutaneous at 0, 4 and 24 hours post infection, lowest dose with significant anti-fungal effect

Compound | zone of inhibition at 1000 µg/mL [1] [mm] | zone of inhibition at 1000 µg/mL [2, 9] [mm] | zone of inhibition at 1000 µg/mL [3, 10] [mm] | Size of Zone of Inhibition [4] [mm] | MIC [5] [μg/disc] | MIC [6] [μg/disc] | ED50 [7, 11] [mg/kg] | minimal effective dose [7, 12] [mg/kg] | Blood Levels [8] [µg/mL] | ED50 [7] [mg/kg] | minimal effective dose [7, 13] [mg/kg] | zone of inhibition at 1000 µg/mL ([2]; CRASSA846, 48 h, Neurospora Crassa 846, 1 mg/ml suspension in methanol, 24-48 hours at 25-37° C., no regrowth mark, read-out: Size of Zone of Inhibition) [mm] | zone of inhibition at 1000 µg/mL ([3]; 48 h, 1 mg/ml suspension in methanol, 24-48 hours at 25-37° C., no regrowth mark, read-out: Size of Zone of Inhibition) [mm] | Size of Zone of Inhibition (*) ([4]; 1 mg/ml, * measurable zone of inhibition with regrowth of organism around disc) [mm]
CCCCCCCCCCCC(=O)Nc1ncccc1C(=O)N[C@H]1C[C@@H](O)[C@@H](O)NC(=O)[C@@H]2[C@@H](O)[C@@H](C)CN2C(=O)[C@H]([C@@H](C)O)NC(=O)[C@H]([C@H](O)[C@@H](O)c2ccc(O)cc2)NC(=O)[C@@H]2C[C@@H](O)CN2C(=O)[C@H]([C@@H](C)O)NC1=O [Example 75] (Lauroyl-[X3][Orn(4R-OH,5R-OH)]T[Hyp][hTyr(3S-OH,4S-OH)]T[Pro(3S-OH,4S-Me)]; lactam 2-C) | 14 | 30 | 54 | 24 | 2.5 | 0.078 | > 40 | > 40 | 0 | – | – | – | – | –
CCCCCCCCCC(=O)Nc1ccc(C(=O)N[C@H]2C[C@@H](O)[C@@H](O)NC(=O)[C@@H]3[C@@H](O)[C@@H](C)CN3C(=O)[C@H]([C@@H](C)O)NC(=O)[C@H]([C@H](O)[C@@H](O)c3ccc(O)cc3)NC(=O)[C@@H]3C[C@@H](O)CN3C(=O)[C@H]([C@@H](C)O)NC2=O)cc1 [Example 79] ({Decanoyl-4Abz}-[Orn(4R-OH,5R-OH)]T[Hyp][hTyr(3S-OH,4S-OH)]T[Pro(3S-OH,4S-Me)]; lactam 1-C) | 17 | 30 | – | 24 | 0.625 | – | – | – | – | 26 | 5 | – | – | –
CCCCCCC(=O)Nc1ccc(C(=O)N[C@H]2C[C@@H](O)[C@@H](O)NC(=O)[C@@H]3[C@@H](O)[C@@H](C)CN3C(=O)[C@H]([C@@H](C)O)NC(=O)[C@H]([C@H](O)[C@@H](O)c3ccc(O)cc3)NC(=O)[C@@H]3C[C@@H](O)CN3C(=O)[C@H]([C@@H](C)O)NC2=O)cc1 [Example 78] ({Heptanoyl-4Abz}-[Orn(4R-OH,5R-OH)]T[Hyp][hTyr(3S-OH,4S-OH)]T[Pro(3S-OH,4S-Me)]; lactam 1-C) | 20 | – | – | – | – | 1.25 | – | – | – | > 40 | > 40 | 25 | 14 | 45
CCCCCCCCCCCC(=O)Nc1cc(C(=O)N[C@H]2C[C@@H](O)[C@@H](O)NC(=O)[C@@H]3[C@@H](O)[C@@H](C)CN3C(=O)[C@H]([C@@H](C)O)NC(=O)[C@H]([C@H](O)[C@@H](O)c3ccc(O)cc3)NC(=O)[C@@H]3C[C@@H](O)CN3C(=O)[C@H]([C@@H](C)O)NC2=O)ccc1C [Example 69] (Lauroyl-[X7][Orn(4R-OH,5R-OH)]T[Hyp][hTyr(3S-OH,4S-OH)]T[Pro(3S-OH,4S-Me)]; lactam 2-C) | 17 | 30 | – | 16 | > 20 | < 0.039 | > 40 | > 40 | 0 | – | – | – | – | –
CCCCCCC(=O)NCCCCCCCCCCC(=O)N[C@H]1C[C@@H](O)[C@@H](O)NC(=O)[C@@H]2[C@@H](O)[C@@H](C)CN2C(=O)[C@H]([C@@H](C)O)NC(=O)[C@H]([C@H](O)[C@@H](O)c2ccc(O)cc2)NC(=O)[C@@H]2C[C@@H](O)CN2C(=O)[C@H]([C@@H](C)O)NC1=O [Example 76] ({Heptanoyl-Aun}-[Orn(4R-OH,5R-OH)]T[Hyp][hTyr(3S-OH,4S-OH)]T[Pro(3S-OH,4S-Me)]; lactam 1-C) | – | 20 | 35 | 10 | – | 0.625 | > 40 | > 40 | 0 | – | – | – | – | –
CCCCCCCC(=O)Nc1cc(Cl)cc(C(=O)N[C@H]2C[C@@H](O)[C@@H](O)NC(=O)[C@@H]3[C@@H](O)[C@@H](C)CN3C(=O)[C@H]([C@@H](C)O)NC(=O)[C@H]([C@H](O)[C@@H](O)c3ccc(O)cc3)NC(=O)[C@@H]3C[C@@H](O)CN3C(=O)[C@H]([C@@H](C)O)NC2=O)c1Cl [Example 88] (Octanoyl-[X5][Orn(4R-OH,5R-OH)]T[Hyp][hTyr(3S-OH,4S-OH)]T[Pro(3S-OH,4S-Me)]; lactam 2-C) | – | – | – | – | – | – | – | – | – | > 40 | 20 | – | – | –
CCCCCCCCCCCC(=O)Nc1ccc(C(=O)N[C@H]2C[C@@H](O)[C@@H](O)NC(=O)[C@@H]3[C@@H](O)[C@@H](C)CN3C(=O)[C@H]([C@@H](C)O)NC(=O)[C@H]([C@H](O)[C@@H](O)c3ccc(O)cc3)NC(=O)[C@@H]3C[C@@H](O)CN3C(=O)[C@H]([C@@H](C)O)NC2=O)c(O)c1 [Example 66] (Lauroyl-[X8][Orn(4R-OH,5R-OH)]T[Hyp][hTyr(3S-OH,4S-OH)]T[Pro(3S-OH,4S-Me)]; lactam 2-C) | 18 | – | – | 23 | 1.25 | < 0.039 | > 40 | 40 | 0 | – | – | – | – | –
CCCCCCCC(=O)Nc1ccc(C(=O)N[C@H]2C[C@@H](O)[C@@H](O)NC(=O)[C@@H]3[C@@H](O)[C@@H](C)CN3C(=O)[C@H]([C@@H](C)O)NC(=O)[C@H]([C@H](O)[C@@H](O)c3ccc(O)cc3)NC(=O)[C@@H]3C[C@@H](O)CN3C(=O)[C@H]([C@@H](C)O)NC2=O)c(Cl)c1 [Example 86] (Octanoyl-[4Abz(2-Cl)][Orn(4R-OH,5R-OH)]T[Hyp][hTyr(3S-OH,4S-OH)]T[Pro(3S-OH,4S-Me)]; lactam 2-C) | – | – | – | – | – | – | 29 | 10 | – | – | – | – | – | –
CCCCCCCCCCCC(=O)Nc1cc(C(=O)N[C@H]2C[C@@H](O)[C@@H](O)NC(=O)[C@@H]3[C@@H](O)[C@@H](C)CN3C(=O)[C@H]([C@@H](C)O)NC(=O)[C@H]([C@H](O)[C@@H](O)c3ccc(O)cc3)NC(=O)[C@@H]3C[C@@H](O)CN3C(=O)[C@H]([C@@H](C)O)NC2=O)ccc1OC [Example 71] (Lauroyl-[X9][Orn(4R-OH,5R-OH)]T[Hyp][hTyr(3S-OH,4S-OH)]T[Pro(3S-OH,4S-Me)]; lactam 2-C) | 10 | 32 | 50 | 20 | – | – | > 40 | > 40 | – | – | – | – | – | –
CCCCCCCCCCCC(=O)Nc1cccc(C(=O)N[C@H]2C[C@@H](O)[C@@H](O)NC(=O)[C@@H]3[C@@H](O)[C@@H](C)CN3C(=O)[C@H]([C@@H](C)O)NC(=O)[C@H]([C@H](O)[C@@H](O)c3ccc(O)cc3)NC(=O)[C@@H]3C[C@@H](O)CN3C(=O)[C@H]([C@@H](C)O)NC2=O)c1 [Example 65] ({Lauroyl-3Abz}-[Orn(4R-OH,5R-OH)]T[Hyp][hTyr(3S-OH,4S-OH)]T[Pro(3S-OH,4S-Me)]; lactam 1-C) | 17 | – | – | 20 | 5.0 | < 0.039 | > 40 | > 40 | 0 | – | – | – | – | –

— patent US4293483A, “Derivatives of A-30912A nucleus” (priority 1980, dated 1981)
